This note sets out measurements from PubChem BioAssay AID180 (DTP/NCI, 2004).

The assay concerns BDF1 mice, Adenocarcinoma 755 s.c., tumor weight T/C. Put plainly: NCI In Vivo Anticancer Drug Screen. Data for tumor model Adenocarcinoma 755 (subcutaneous) in B6D2F1 (BDF1) mice. The conditions noted are these: endpoint: mean tumor weight, higher = larger tumour. A digest of the protocol:
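Transplantable tumor implanted; mice dosed with compound or vehicle; survival or tumor size recorded; ratio of treated to vehicle control reported.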

[1] abbreviates: dose: 50.0 mg/kg/injection, schedule: Q01DX011 (ip), vehicle: methylcellulose (MC).
Setting [2] is: dose: 100.0 mg/kg/injection, schedule: Q01DX011 (ip), vehicle: methylcellulose (MC).
Where [3] appears, read: dose: 200.0 mg/kg/injection, schedule: Q01DX011 (ip), vehicle: methylcellulose (MC).
Setting [4] is: dose: 1000.0 mg/kg/injection, schedule: Q01DX011 (ip), vehicle: methylcellulose (MC).
Setting [5] is: dose: 25.0 mg/kg/injection, schedule: Q01DX011 (ip), vehicle: methylcellulose (MC).
[6] abbreviates: dose: 75.0 mg/kg/injection, schedule: Q01DX011 (ip), vehicle: saline.
Setting [7] is: dose: 125.0 mg/kg/injection, schedule: Q01DX011 (ip), vehicle: methylcellulose (MC).
Where [8] appears, read: dose: 15.0 mg/kg/injection, schedule: Q01DX011 (ip), vehicle: methylcellulose (MC).

Where “and” joins values, the source holds several entries; their conditions need not be identical. Identical values can stand only once.

For `O=C(O)CC(O)(CC(=O)O)C(=O)O.[Ga]`, the T/C (as a rule, the ratio of treated to control) (dose: 0.15 mg/kg/injection, schedule: Q01DX011 (ip), vehicle: carboxymethylcellulose (CMC)) was 101 % of control; the T/C (dose: 0.3 mg/kg/injection, schedule: Q01DX011 (ip), vehicle: carboxymethylcellulose (CMC)) is 67 % of control; the T/C (dose: 0.31 mg/kg/injection, schedule: Q01DX011 (ip), vehicle: carboxymethylcellulose (CMC)) was 58 % of control; the T/C (dose: 0.6 mg/kg/injection, schedule: Q01DX011 (ip), vehicle: carboxymethylcellulose (CMC)) was 72 % of control; the T/C (dose: 0.62 mg/kg/injection, schedule: Q01DX011 (ip), vehicle: carboxymethylcellulose (CMC)) is 55 % of control; the T/C (dose: 1.2 mg/kg/injection, schedule: Q01DX011 (ip), vehicle: carboxymethylcellulose (CMC)) is 42 % of control and 62 % of control. The T/C (dose: 1.25 mg/kg/injection, schedule: Q01DX011 (ip), vehicle: carboxymethylcellulose (CMC)) is 25 % of control and 36 % of control; the T/C (dose: 20.0 mg/kg/injection, schedule: Q01DX011 (ip), vehicle: carboxymethylcellulose (CMC)) was 5 % of control and 18 % of control; the T/C (dose: 40.0 mg/kg/injection, schedule: Q01DX011 (ip), vehicle: carboxymethylcellulose (CMC)) is 5 % of control; the T/C (dose: 80.0 mg/kg/injection, schedule: Q01DX011 (ip), vehicle: carboxymethylcellulose (CMC)) is 2 % of control.
With `CNc1nc(N)nc(Nc2ccc(I)cc2)c1N=O`, the T/C (dose: 12.5 mg/kg/injection, schedule: Q01DX011 (ip), vehicle: carboxymethylcellulose (CMC)) was 52 % of control; the T/C (dose: 25.0 mg/kg/injection, schedule: Q01DX011 (ip), vehicle: carboxymethylcellulose (CMC)) is 39 % of control and 52 % of control; the T/C under setting [1] was 31 % of control; the T/C (dose: 100.0 mg/kg/injection, schedule: Q01DX011 (ip), vehicle: carboxymethylcellulose (CMC)) was 20 % of control and 36 % of control and 38 % of control; the T/C under setting [2] was 46 % of control; the T/C (dose: 200.0 mg/kg/injection, schedule: Q01DX011 (ip), vehicle: carboxymethylcellulose (CMC)) was 28 % of control and 30 % of control. The T/C reads like this: under setting [3], 25 % of control; (dose: 400.0 mg/kg/injection, schedule: Q01DX011 (ip), vehicle: methylcellulose (MC)) 12 % of control.
`O=C(NC(CO)C(=O)O)C(Cl)Cl` (stereo unspecified): the T/C under setting [4] was 93 % of control.
On to `Cc1ncc(CO)c(C)c1O`, for which the T/C is, setting by setting: (dose: 12.5 mg/kg/injection, schedule: Q01DX011 (ip), vehicle: saline) 48 % of control; (dose: 22.78 mg/kg/injection, schedule: Q01DX011 (ip), vehicle: carboxymethylcellulose (CMC)) 81 % of control; under setting [5], 98 % of control; (dose: 25.0 mg/kg/injection, schedule: Q01DX011 (ip), vehicle: saline) 45 % of control; (dose: 45.57 mg/kg/injection, schedule: Q01DX011 (ip), vehicle: carboxymethylcellulose (CMC)) 70 % of control; under setting [1], 75 % of control. For the same molecule, the T/C reads like this: (dose: 50.0 mg/kg/injection, schedule: Q01DX011 (ip), vehicle: saline) 54 % of control; (dose: 59.07 mg/kg/injection, schedule: Q01DX011 (ip), vehicle: carboxymethylcellulose (CMC)) 107 % of control; under setting [6], 50 % of control; (dose: 91.15 mg/kg/injection, schedule: Q01DX011 (ip), vehicle: carboxymethylcellulose (CMC)) 76 % of control; under setting [2], 71 % of control; (dose: 100.0 mg/kg/injection, schedule: Q01DX011 (ip), vehicle: saline) 22 % of control. Besides, the T/C by setting is: (dose: 118.15 mg/kg/injection, schedule: Q01DX011 (ip), vehicle: carboxymethylcellulose (CMC)) 108 % of control; under setting [7], 48 % of control; (dose: 150.0 mg/kg/injection, schedule: Q01DX011 (ip), vehicle: saline) 30 % of control; (dose: 182.3 mg/kg/injection, schedule: Q01DX011 (ip), vehicle: carboxymethylcellulose (CMC)) 72 % of control; under setting [3], 70 % of control; (dose: 236.3 mg/kg/injection, schedule: Q01DX011 (ip), vehicle: carboxymethylcellulose (CMC)) 55 % of control.
For `O=c1[nH]cc(Br)c(=S)[nH]1`, the T/C was 64 % of control under setting [8]; 86 % of control (dose: 31.0 mg/kg/injection, schedule: Q01DX011 (ip), vehicle: methylcellulose (MC)); 80 % of control (dose: 62.0 mg/kg/injection, schedule: Q01DX011 (ip), vehicle: methylcellulose (MC)); 119 % of control under setting [7]; 109 % of control (dose: 250.0 mg/kg/injection, schedule: Q01DX011 (ip), vehicle: methylcellulose (MC)).
In the case of `Nc1ncc2[nH]c(N)nc2n1`, the T/C is 58 % of control under setting [5] and 73 % of control (dose: 75.0 mg/kg/injection, schedule: Q01DX011 (ip), vehicle: methylcellulose (MC)).
For the molecule `Cc1cc2nc3c(=O)[nH]c(=O)nc-3n(CCO)c2cc1C`, the T/C is 98 % of control (dose: 800.0 mg/kg/injection, schedule: Q01DX011 (ip), vehicle: methylcellulose (MC)) and 95 % of control under setting [4].
Take `N#CCSc1ncnc2nc[nH]c12`: the T/C runs as follows: (dose: 1.0 mg/kg/injection, schedule: Q01DX011 (im), vehicle: carboxymethylcellulose (CMC)) 63 % of control; (dose: 1.0 mg/kg/injection, schedule: Q01DX011 (ip), vehicle: carboxymethylcellulose (CMC)) 54 % of control; (dose: 1.0 mg/kg/injection, schedule: Q01DX011 (iv), vehicle: carboxymethylcellulose (CMC)) 79 % of control; (dose: 1.0 mg/kg/injection, schedule: Q01DX011 (sc), vehicle: carboxymethylcellulose (CMC)) 53 % of control; (dose: 2.0 mg/kg/injection, schedule: Q01DX011 (im), vehicle: carboxymethylcellulose (CMC)) 9 % of control; (dose: 2.0 mg/kg/injection, schedule: Q01DX011 (ip), vehicle: carboxymethylcellulose (CMC)) 14 % of control. Moreover, the T/C runs as follows: (dose: 2.0 mg/kg/injection, schedule: Q01DX011 (iv), vehicle: carboxymethylcellulose (CMC)) 28 % of control; (dose: 2.0 mg/kg/injection, schedule: Q01DX011 (sc), vehicle: carboxymethylcellulose (CMC)) 10 % of control; (dose: 4.0 mg/kg/injection, schedule: Q01DX011 (im), vehicle: carboxymethylcellulose (CMC)) 1 % of control; (dose: 4.0 mg/kg/injection, schedule: Q01DX011 (ip), vehicle: carboxymethylcellulose (CMC)) 6 % of control; (dose: 8.0 mg/kg/injection, schedule: Q01DX011 (ip), vehicle: carboxymethylcellulose (CMC)) 7 % of control; (dose: 8.0 mg/kg/injection, schedule: Q01DX011 (iv), vehicle: carboxymethylcellulose (CMC)) 1 % of control. Moreover, the T/C (dose: 16.0 mg/kg/injection, schedule: Q01DX011 (ip), vehicle: carboxymethylcellulose (CMC)) is 3 % of control; the T/C (dose: 50.0 mg/kg/injection, schedule: Q03DX004 (ip), vehicle: carboxymethylcellulose (CMC)) was 2 % of control; the T/C (dose: 64.0 mg/kg/injection, schedule: Q01DX011 (ip), vehicle: carboxymethylcellulose (CMC)) is 2 % of control; the T/C (dose: 100.0 mg/kg/injection, schedule: Q01DX001 (ip), vehicle: carboxymethylcellulose (CMC)) was 20 % of control; the T/C (dose: 100.0 mg/kg/injection, schedule: Q03DX004 (ip), vehicle: carboxymethylcellulose (CMC)) is 1 % of control; the T/C (dose: 100.0 mg/kg/injection, schedule: Q07DX002 (ip), vehicle: carboxymethylcellulose (CMC)) is 5 % of control. Further, the T/C (dose: 200.0 mg/kg/injection, schedule: Q01DX001 (ip), vehicle: carboxymethylcellulose (CMC)) was 20 % of control and the T/C (dose: 200.0 mg/kg/injection, schedule: Q07DX002 (ip), vehicle: carboxymethylcellulose (CMC)) is 3 % of control.
Turning to `CC(=O)Nc1cc2c(cc1Br)-c1ccccc1C2O` (stereo unspecified), the T/C (dose: 35.0 mg/kg/injection, schedule: Q01DX011 (ip), vehicle: saline) was 43 % of control; the T/C under setting [6] is 52 % of control; the T/C (dose: 155.0 mg/kg/injection, schedule: Q01DX011 (ip), vehicle: saline) is 38 % of control; the T/C (dose: 210.0 mg/kg/injection, schedule: Q01DX011 (ip), vehicle: saline) was 23 % of control.
With `Cc1cnc(SCc2ccccc2Cl)nc1N(C)C`, the T/C runs as follows: under setting [8], 89 % of control; under setting [7], 109 % of control.
In the case of `CNC(=O)C(C)C`, the T/C reads like this: (dose: 31.2 mg/kg/injection, schedule: Q01DX011 (ip), vehicle: other) 44 % of control; (dose: 62.5 mg/kg/injection, schedule: Q01DX011 (ip), vehicle: other) 90 % of control; (dose: 125.0 mg/kg/injection, schedule: Q01DX011 (ip), vehicle: other) 90 % of control; (dose: 250.0 mg/kg/injection, schedule: Q01DX011 (ip), vehicle: other) 77 % of control.
